Reference: patent EP0181129B1, “N6-substituted deoxyribose analogs of adenosines” (WARNER-LAMBERT COMPANY, priority 1984, dated 1986)
“And” between values parts separate entries of the source, which are not always exact repeats. Equal entries are not always repeated.

Tests used:
Swiss-Webster male mice = test: Mouse Activity and Screen Test Procedure (MAST); assay type: in vivo; details: for Inhibition of Mouse Locomotor Activity: one hour prior to testing; for Screen Test Failure: percent of mice falling off the screen
From the text: The compounds of the invention are new chemical substances which are useful as pharmaceutical agents for the treatment of psychoses. The antipsychotic activity of representative compounds of the invention was established by the Mouse Activity and Screen Test Procedure (MAST) described below.
Nine unfasted Swiss-Webster male mice weighing 20-30 g are equally divided into three groups for each drug dose to be tested. That is, data for each dose level was generated by three separate groups of three mice each.
A minimum of three dose levels (10, 30, and 100 mg/kg) are tested for each drug. Treatments are administered intraperitoneally one hour prior to testing. All dosages are calculated as parent compound and given in volumes of 10 ml/kg. Compounds are dissolved or suspended in 0.2% Methocel. Control animals are injected with Methocel.
A two part testing procedure is started one hour post injection. First, the screen test (ST) is performed (see Pharmac. Biochem. Behav. 6, 351-353, 1977). Briefly this test consists of placing mice on individual wire screens which are then rotated 180 degrees at the start of a 60 second observation period. The number of mice falling off the inverted screen is recorded.
Immediately following the screen test, the final phase of testing is initiated by placing each group of three mice in one actophotometer (Life Sciences, 22,1067-1076,1978). The actophotometer consists of a cylindrical chamber whose center is occupied by another cylinder which contains the illumination for six photocells located on the perimeter of the chamber. Six light-beam interruptions equal one count. Locomotor activity is recorded by computer at ten minutes intervals for 60 minutes.
The data obtained from the screen test are expressed as percent of mice falling off the screen. Data derived from locomotor activity of drug treated mice are compared to the activity of vehicle treated animals and are expressed as percent inhibition of spontaneous locomotion. All percentages reported for inhibition of locomotion (LI) are based upon data accumulated for one hour. Both phases of testing are graded: A=60-100%; C=31-59%; and N=0-30%. An overall dose rating is obtained by the following criteria:
LAD refers to the lowest dose at which an A rating is achieved. […] Utilizing this procedure, an overall dose rating of A was obtained for the noted compound at the indicated dose. The compounds are identified in the Examples.

adenosine A2 receptor = biological target: T1, adenosine A2 receptor (Rattus norvegicus, UniProt P30543); test: Adenosine Receptor Binding - A2 Receptor Affinity (RBA2), [3H]NECA displacement; details: 4 nM [3H]NECA with 50 nM N6-cyclopentyladenosine, rat striatal membranes, 60 minutes at 25°C; read-out: Receptor Binding RBA—2
T1 construct: Brains were thawed and then kept on ice while the striata were dissected out; tissue Pel-Freez (Rogers, Arkansas); host or cells: rat striatum, membranes
Description: Brains from 200-500 g mixed sex Sprague-Dawley rats were purchased from Pel-Freez (Rogers, Arkansas). Fresh brains from male Long-Evans hooded rats (Blue Spruce Farms, Altamont, NY) gave essentially indentical results. Brains were thawed and then kept on ice while the striata were dissected out. Striata were disrupted in 10 vol of ice-cold 50 mM Tris.HCI (pH 7.7 at 25°C, pH 8.26 at 5°C) (Tris) for 30 seconds in a Polytron PT―10 (Brinkmann) at setting 5. The suspension was centrifuged at 50,000 xg for ten minutes, the supernatant discarded, the pellet resuspended in 10 vol ice-cold Tris as above, recentrifuged, resuspended at 1 g/5 ml, and stored in plastic vials at -70°C (stable for at least six months). When needed, tissue was thawed at room temperature, disrupted in a Polytron, and kept on ice until used.
All incubations were for 60 minutes at 25°C in 12x75 mm glass tubes containing 1 ml Tris with 5 mg original tissue weight of rat weight of rat striatal membranes, 4 nM [^3H]-N-ethyl adenosine-5'-carboxamide ([^3H]NECA), 50 nM N^6-cyclopentyladenosine (to eliminate A1 receptor binding), 10 mM MgCl2, 0.1 units/ml, of adenosine deaminase and 1% dimethylsulfoxide. N^6-Cyclopentyladenosine was dissolved at 10 mM in 0.02 N HCI and diluted in Tris. Stock solutions and dilutions of N^6-cyclopentyladenosine could be stored at -20°C for several months. Test compounds were dissolved at 10 mM in dimethylsulfoxide or the same day as the experiment, and diluted in dimethylsulfoxide to 100x the final incubation concentration. Control incubations received an equal volume (10 µl) of dimethylsulfoxide; the resulting concentration of dimethylsulfoxide had no effect on binding. [^3H]NECA was diluted to 40 nM in Tris. The membrane suspension (5 mg/0.79 ml) contained sufficient MgCl2 and adenosine deaminase to give 10 mM and 0.1 units/ml, respectively, final concentration in the incubation. […] After all additions, the rack of tubes was vortexed, and the tubes were then incubated for 60 min at 25°C in a shaking water bath. The rack of tubes was vortexed an additonal time halfway through the incubation.
Incubations were terminated by filtration through 2.4 cm GF/B filters under reduced pressure. Each tube was filtered as follows: the contents of the tube were poured onto the filter, 4 ml of ice-cold Tris were added to the tube and the contents poured onto the filter, and the filter was washed twice with 4 ml of ice-cold Tris. The filtration was complete in about twelve seconds. Filters were put in scintillation vials, 8 ml of Formula 947 scintillation fluid added, and the vials left overnight, shaken, and counted in a liquid scintillation counter at 40% efficiency.
Nonspecific binding was defined as binding in the presence of […] N^6-cyclopentyladenosine, and specific binding was defined as total binding minus nonspecific binding. The IC50 was calculated by weighted nonlinear least squares curve-fitting to the mass-action equation. [formula] • where Y is cpm bound T is cpm total binding without drug S is cpm specific binding without drug D is the concentration of drug • and K is the IC50 of the drug Weighting factors were calculated under the assumption that the standard deviation was proportional to the predicted value of Y. Nonspecific binding was treated as a very large (infinite) concentration of drug in the computer analysis.

[1] = Dose 10 mg/kg intraperitoneally
[2] = Dose 30 mg/kg intraperitoneally
[3] = Dose 0.3 mg/kg intraperitoneally

T1 sequence (P30543 whole entry): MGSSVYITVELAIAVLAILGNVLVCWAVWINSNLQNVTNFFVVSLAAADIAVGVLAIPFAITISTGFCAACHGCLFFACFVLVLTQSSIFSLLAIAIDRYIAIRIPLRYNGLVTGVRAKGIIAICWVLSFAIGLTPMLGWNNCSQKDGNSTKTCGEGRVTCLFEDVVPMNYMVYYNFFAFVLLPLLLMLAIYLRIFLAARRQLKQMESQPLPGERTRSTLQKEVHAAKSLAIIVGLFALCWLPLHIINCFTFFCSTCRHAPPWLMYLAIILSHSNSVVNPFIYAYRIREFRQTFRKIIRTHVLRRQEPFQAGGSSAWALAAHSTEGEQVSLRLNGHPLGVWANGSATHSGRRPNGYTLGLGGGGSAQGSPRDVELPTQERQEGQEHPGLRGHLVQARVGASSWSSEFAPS

For C[C@H]1O[C@@H](n2cnc3c(NCc4cccc5ccccc45)ncnc32)[C@H](O)[C@@H]1O [Example 20, N^6-α-Naphthylmethyl-5' -deoxyadenosine], the “Inhibition of Mouse Locomotor Activity” value (Swiss-Webster male mice; Dose 3 mg/kg intraperitoneally) was −1%, the “Screen Test Failure” value (Swiss-Webster male mice; Dose 3 mg/kg intraperitoneally) was 0% and the “Inhibition of Mouse Locomotor Activity” value (Swiss-Webster male mice; [1]) was 49%. For the same compound, the “Screen Test Failure” value (Swiss-Webster male mice; [1]) was 0%, the “Inhibition of Mouse Locomotor Activity” value (Swiss-Webster male mice; [2]) was 81% and the “Screen Test Failure” value (Swiss-Webster male mice; [2]) was 0%. It also gave an IC50 (adenosine A2 receptor) of 0.323 µM.
For O[C@@H]1[C@H](O)[C@@H](CCl)O[C@H]1n1cnc2c(NC3CCc4ccccc43)ncnc21 (stereo partly drawn) [Example 23, (R)-N^6(1-Indanyl)-5'-deoxy-5'-chloroadenosine], the “Inhibition of Mouse Locomotor Activity” value (Swiss-Webster male mice; [3]) was −2%, the “Screen Test Failure” value (Swiss-Webster male mice; [3]) was 0% and the “Inhibition of Mouse Locomotor Activity” value (Swiss-Webster male mice; Dose 1 mg/kg intraperitoneally, 1 mg/kg) was 0% and 7%. For the same compound, the “Screen Test Failure” value (Swiss-Webster male mice; Dose 1 mg/kg intraperitoneally) was 0%, the “Inhibition of Mouse Locomotor Activity” value (Swiss-Webster male mice; Dose 3 mg/kg intraperitoneally) was 48% and the “Screen Test Failure” value (Swiss-Webster male mice; Dose 3 mg/kg intraperitoneally) was 0%. For the same compound, the “Inhibition of Mouse Locomotor Activity” value (Swiss-Webster male mice; [1]) was 76%, the “Screen Test Failure” value (Swiss-Webster male mice; [1]) was 0% and the “Inhibition of Mouse Locomotor Activity” value (Swiss-Webster male mice; [2]) was 81%. The “Screen Test Failure” value (Swiss-Webster male mice; [2]) was 0% and the IC50 (adenosine A2 receptor) was 3.04 µM.
C[C@H]1O[C@@H](n2cnc3c(NC4CCCc5ccccc54)ncnc32)[C@H](O)[C@@H]1O (stereo partly shown) [Example 19, N^6-1-Tetralinyl-5' -deoxyadenosine] was tested, and the “Inhibition of Mouse Locomotor Activity” value (Swiss-Webster male mice; Dose 3 mg/kg intraperitoneally) was 36%, the “Screen Test Failure” value (Swiss-Webster male mice; Dose 3 mg/kg intraperitoneally) was 11% and the “Inhibition of Mouse Locomotor Activity” value (Swiss-Webster male mice; [1]) was 55%. For the same compound, the “Screen Test Failure” value (Swiss-Webster male mice; [1]) was 0%, the “Inhibition of Mouse Locomotor Activity” value (Swiss-Webster male mice; [2]) was 83% and the “Screen Test Failure” value (Swiss-Webster male mice; [2]) was 0%. It also gave an IC50 (adenosine A2 receptor) of 71.3 µM.
